According to patent US20120258975A1, “Potent Small Molecule Inhibitors of Autophagy, and Methods of Use Thereof” (Shanghai Institute of Organic Chemistry, priority 2009, published 2012):

Key:
MDCK cells = MDCK cells under glucose-free condition; type: cell-based, canine
Text: (§1) Hs578Bst cells, established from normal tissue peripheral to the tumor and is myoepithelial in origin, also were not sensitive to spautin (FIGS. 12C and 12D).

Hs578Bst cells = experiment: Hs578Bst cells; type: cell-based
Method: A-B, MDCK cells were treated with DMSO (1‰) and spautin at indicated concentration in DMEM with or without glucose for 24 h. […] C-D, Hs578Bst cells were treated with DMSO (1‰) and C43 as indicated concentration in DMEM with or without glucose for 24 h.
as §1

[1] = system: autophagy (LC3) in pancreas; experiment: Cerulein induced pancreatitis model in rats; type: in vivo; conditions: 40 mg/kg intraperitoneally hourly for 4 times with cerulein
Method: FIG. 13 depicts results showing the effect of MBCQ and derivatives in vivo. (A) Mice were injected with rapamycin (10 mg/kg) alone as a positive control, or with C43 or MBCQ (40 mg/kg) intraperitoneally every hour for 4 h and then sacrificed at 5 th h. The autophagy levels in liver were analyzed by western blotting using anti-LC3 antibody. (B) C43 reduces the levels of autophagy induced by cerulein. Rats were injected intraperitoneally with cerulein (50 μg/kg) alone or with C43 (40 mg/kg) hourly for 4 times. The rats were sacrificed at one h after the last injection and the pancreas were isolated for western blotting analysis using anti-LC3 and anti-tubulin (as a control).
Since autophagy has been proposed to contribute to the tissue damage in pancreatitis, MBCQ derivatives were tested to see if they could reduce tissue damage induced by cerulein injection, a well-established animal model of pancreatitis (Hashimoto, D., Ohmuraya, M., Hirota, M., Yamamoto, A., Suyama, K., Ida, S., Okumura, Y., Takahashi, E., Kido, H., Araki, K., et al. (2008). Involvement of autophagy in trypsinogen activation within the pancreatic acinar cells. J Cell Biol 181, 1065-1072; and Ohmuraya, M., and Yamamura, K. (2008). Autophagy and acute pancreatitis: a novel autophagy theory for trypsinogen activation. Autophagy 4, 1060-1062). […]

MEF cells = experiment: Electron microscopy of MEF cells; type: cell-based, mouse; conditions: rapamycin (0.2 μM) plus compound, 4 h
Method: FIG. 5 depicts results related to showing that active derivatives of MBCQ reduce the levels of LC3II in MEF cells. […] The cell lysates were collected for western blotting using anti-LC3 antibody. B, Electron microscopy confirmation of the autophagy inhibitory effects of C43 (spautin) on MEF cells. MEF cells were treated with vehicle control (1‰ DMSO), and other indicated compounds for 4 h. Rapamycin (0.2 μM) and C43 (spautin) (10 μM). Then the cells were fixed with glutaraldehyde and prepared the sample for EM assay. Bar, 1:11,000. Arrows indicate double and multi-membrane autophagosomic vesicles. N: nucleus.
The effect of C29 and C43 on autophagy was further confirmed by electron microscopy. In rapamycin treated MEF cells, numerous autophagosome vesicles with double membranes were observed, as well as many vesicles with multi-membrane as expected (FIG. 5B).

[2] = system: USP10/Beclin1 and USP13/Beclin1 interaction; experiment: USP10 or USP13 / GFP-Beclin1 co-immunoprecipitation in 293T cells; type: cell-based; conditions: 10 μM, 4 h, with MG132
Method: To further confirm that USP10 and USP13 are the deubiquitinating proteases of Vps34 complexes, the interaction of Flag-USP10/GFP-Beclin1 and Myc-USP13/GFP-Beclin1 in 293T cells was assayed with immunoprecipitation. […] Furthermore, this may provide a mechanism to explain why beclin1 is frequently lost in many kinds of cancers as the loss of beclin1 may lead to a reduction of p53 by inhibiting its deubiquitining proteases.

Vps34 complex = biological target: T1, Vps34 complex (Homo sapiens, UniProt Q8NEB9); experiment: Vps34 complex kinase assay (PtdIns phosphorylation, TLC); type: biochemical; conditions: immunoprecipitated HA-Vps34 complex from 293T; wortmannin 10 uM
T1 construct: expressed in transfected cells; host or cells: 293T

H4 cells [3] = experiment: H4 cell growth and cell cycle; type: cell-based; conditions: 5 μM for 24 h and 48 h
Method: FIG. 6 depicts results showing that MBCQ has little effect on H4 cell growth. A, H4 cells were treated with MBCQ (5 μM) for 5 days and harvested daily for cell number counting in the presence of trypan blue; B, H4 cells were treated with MBCQ (5 μM) for 24 h and 48 h, and then cells were fixed with 70% ethanol, stained with propidium iodide (40 μg/mL) and incubated with RNase (200 μg/mL solution for 30 min. The cell cycle profile and possible apoptotic cell death were analyzed by flow cytometer.
To characterize the effect of MBCQ on cellular activity, the effect of MBCQ on cell survival and cell cycle was determined as outlined below. H4 cells were treated with MBCQ (5 μM) for 5 days and harvested daily for cell number counting in the presence of trypan blue. […] The cell cycle profile and possible apoptotic cells in H4 cells treated with MBCQ (5 μM) for 24 h and 48 h was also determined.

H4 cells [4] = experiment: Electron microscopy of H4 cells; type: cell-based
Method: FIG. 3 depicts electron microscopy analysis of the effect of MBCQ on autophagy. H4 cells were treated with 0.1% DMSO (vehicle), rapamycin (0.2 μM), MBCQ (10 μM), or MBCQ and rapamycin for 4 h. The cells were processed and imaged by EM.
The ultra-structure of cells treated with rapamycin was determined in the presence or absence of MBCQ. […] Treatment of rapamycin led to the formation of a large numbers of autophagosomes with characteristic double membrane.

LC3II = experiment: Endogenous LC3II western blot in H4-LC3, 293T and MEF cells; type: cell-based; conditions: MBCQ and rapamycin co-treated versus rapamycin alone
Method: To confirm the inhibition of autophagy by MBCQ, H4-LC3 cells, 293T cells and mouse embryonic fibroblast cells were treated with MBCQ and the levels of endogenous LC3II were measured by western blot.

[5] = system: ubiquitin-proteasomal degradation pathway; experiment: Proteasomal degradation pathway (pEGFP-CL1, polyubiquitination); type: cell-based
Method: In addition, the effect of MBCQ on proteasomal degradation pathway using pEGFP-CL1, a GFP fusion with a short-lived peptide was determined (Bence, N. F., Sampat, R. M., and Kopito, R. R. (2001). Impairment of the ubiquitin-proteasome system by protein aggregation. Science 292, 1552-1555).

T1 sequence (Q8NEB9 whole entry): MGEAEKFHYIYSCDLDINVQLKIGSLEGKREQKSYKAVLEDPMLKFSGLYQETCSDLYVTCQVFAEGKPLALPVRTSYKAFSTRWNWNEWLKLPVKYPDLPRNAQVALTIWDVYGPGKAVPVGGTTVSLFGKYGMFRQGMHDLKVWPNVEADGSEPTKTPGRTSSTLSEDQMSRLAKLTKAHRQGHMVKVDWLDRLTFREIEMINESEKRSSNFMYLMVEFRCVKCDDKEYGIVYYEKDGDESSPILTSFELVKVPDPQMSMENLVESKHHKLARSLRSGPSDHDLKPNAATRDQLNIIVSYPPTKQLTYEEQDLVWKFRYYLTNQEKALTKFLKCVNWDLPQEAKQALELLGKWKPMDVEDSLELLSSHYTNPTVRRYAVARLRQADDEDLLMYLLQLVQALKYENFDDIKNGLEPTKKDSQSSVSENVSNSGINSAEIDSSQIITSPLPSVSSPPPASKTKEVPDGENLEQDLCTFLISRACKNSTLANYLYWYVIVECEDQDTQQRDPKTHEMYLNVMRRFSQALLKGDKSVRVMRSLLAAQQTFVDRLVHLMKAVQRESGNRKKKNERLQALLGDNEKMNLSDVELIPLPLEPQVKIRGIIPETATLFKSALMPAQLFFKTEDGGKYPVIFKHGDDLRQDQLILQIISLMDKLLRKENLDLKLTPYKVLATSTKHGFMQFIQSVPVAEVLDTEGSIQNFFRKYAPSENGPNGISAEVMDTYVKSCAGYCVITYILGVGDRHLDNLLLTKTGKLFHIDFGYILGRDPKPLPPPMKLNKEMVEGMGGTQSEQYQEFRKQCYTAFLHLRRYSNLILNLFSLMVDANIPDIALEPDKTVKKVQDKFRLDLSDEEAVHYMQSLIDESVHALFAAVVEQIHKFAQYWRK
T1 sequence (Q14457 whole entry partner): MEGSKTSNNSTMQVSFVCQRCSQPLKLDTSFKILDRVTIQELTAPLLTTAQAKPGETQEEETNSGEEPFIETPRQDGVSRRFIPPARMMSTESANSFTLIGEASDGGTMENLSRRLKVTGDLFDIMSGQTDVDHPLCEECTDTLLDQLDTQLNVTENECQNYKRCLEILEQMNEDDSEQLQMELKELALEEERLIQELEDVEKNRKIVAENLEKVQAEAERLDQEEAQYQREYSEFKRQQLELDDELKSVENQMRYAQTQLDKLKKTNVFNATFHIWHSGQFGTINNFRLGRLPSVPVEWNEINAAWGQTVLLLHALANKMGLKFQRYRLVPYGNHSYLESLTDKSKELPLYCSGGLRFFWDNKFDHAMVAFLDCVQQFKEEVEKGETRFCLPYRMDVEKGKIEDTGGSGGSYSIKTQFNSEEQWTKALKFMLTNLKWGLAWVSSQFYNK

Structure (SMILES)	apoptosis (MDCK cells)	growth suppression (MDCK cells; 10 μM of spautin for 48 hrs)	sensitivity of cells to compound (Hs578Bst cells)	levels of autophagy induced by cerulein injection (pancreas) [1]	autophagosomes (MEF cells)	interaction of Flag-USP10 with GFP-Beclin1 [2]	phosphorylation of PtdIns by Vps34 complex (Vps34 complex)	cell cycle distribution (H4 cells [3])	cell morphology (H4 cells [4]; MBCQ alone for 4 h)	double membrane autophagosomes (H4 cells [4]; rapamycin (0.2 μM) and MBCQ (10 μM) together, 4 h)	levels of LC3II (LC3II)	general levels of polyubiquitination [5]	levels of pEGFP-CL1 [5]
Fc1ccc(CNc2ncnc3ccc(F)cc23)cc1 [C43, 6-fluoro-N-(4-fluorobenzyl)quinazolin-4-amine]	did not induce apoptosis	~25%	not sensitive	significantly reduced the levels of autophagy	autophagosomes are largely absent	impair the interaction	–	–	–	–	–	–	–
Clc1ccc2ncnc(NCc3ccc4c(c3)OCO4)c2c1 [MBCQ]	–	–	–	–	–	–	not a direct inhibitor of Vps34 enzymatic activity	no detectable effect on cell cycle distribution	morphologically similar to that control	conspicuously absent	consistently reduced	no effect on the general levels of polyubiquitination	does not affect the levels of pEGFP-CL1
